Patent US20040242871A1, “Novel arylheteroalkylamine derivatives” (priority 2001, published 2004)

COc1cc(S[C@H](C[C@H](N)CO)c2ccccc2)c(C#N)cn1 [Example 10, 4-[[(1R,3S)-3-Amino-4-hydroxy-1-phenylbutyl-]thio]-6-methoxy-3-pyridinecarbonitrile (E)-butenedioate]
melting point: 172 to 173 °C

COc1cc(S[C@H](C[C@@H](N)CO)c2ccccc2)c(C#N)cn1.O=C(O)/C=C/C(=O)O [Example 11, 4-[[(1R,3R)-3-Amino-4-hydroxy-1-phenylbutyl]thio]-6-methoxy-3-pyridinecarbonitrile (E)-butenedioate]
melting point: 221 to 223 °C

COc1cc(S[C@@H](C[C@@H](N)CO)c2ccccc2)c(C#N)cn1.O=C(O)/C=C/C(=O)O [Example 12, 4-[[(1S,3R)-3-Amino-4-hydroxy-1-phenylbutyl]thio]-6-methoxy-3-pyridinecarbonitrile, (E)-butenedioate]
melting point: 162.5 to 163 °C

COc1cc(S[C@@H](C[C@H](N)CO)c2ccccc2)c(C#N)cn1.O=C(O)/C=C/C(=O)O [Example 13, 4-[[(1S,3S)-3-Amino-4-hydroxy-1-phenylbutyl]thio]-6-methoxy-3-pyridinecarbonitrile (E)-butenedioate]
melting point: 213 to 228 °C

N#Cc1cnc(OC(F)F)cc1S[C@H](C[C@H](N)CO)c1ccccc1.O=C(O)/C=C/C(=O)O [Example 14, 4-[[(1R,3S)-3-Amino-4-hydroxy-1-phenylbutyl]thio]-6-(difluoromethoxy)-3-pyridinecarbonitrile (E)-butenedioate]
melting point: 144 to 146 °C

CC(=O)c1ccc(C#N)c(S[C@H](C[C@H](N)CO)c2ccccc2)n1.Cl [Example 20, 6-Acetyl-2-[[(1R,3S)-3-amino-4-hydroxy-1-phenylbutyl]thio]-3-pyridinecarbonitrile Hydrochloride]
melting point: 78 °C

N#Cc1ccc(CO)nc1S[C@H](C[C@H](N)CO)c1ccccc1.O=C(O)/C=C/C(=O)O [Example 21, 2-[[(1R,3S)-3-Amino-4-hydroxy-1-phenylbutyl]thio]-6-(hydroxymethyl)-3-pyridinecarbonitrile (E)-butenedioate]
melting point: 147 to 149 °C

N#Cc1cccnc1S[C@H](C[C@H](N)CO)c1ccccc1.O=C(O)/C=C/C(=O)O [Example 22, 2-[[(1R,3S)-3-Amino-4-hydroxy-1-phenylbutyl]thio]-3-pyridinecarbonitrile (E)-butenedioate]
melting point: 67 to 69 °C

CNc1cc(S[C@H](C[C@H](N)CO)c2ccccc2)c(C#N)cn1.Cl.Cl [Example 26, 4-[[(1R,3S)-3-Amino-4-hydroxy-1-phenylbutyl]thio]-6-(methylamino)-3-pyridinecarbonitrile dihydrochloride]
melting point: 206 to 208 °C

COc1cc(S[C@H](C[C@H](N)CO)c2ccccc2)c(Br)cn1 [Example 27, (β^1S,β^1R)-β-Amino-δ-[(5-bromo-2-methoxy-4-pyridinyl)thio]-benzenebutanol (E)-2-butenedioate]
melting point: 178 to 180 °C

COc1cc(S[C@H](C[C@H](N)CO)c2ccccc2)c(Cl)cn1 [Example 28, (β^1S,β^1R) β-Amino-δ-[(5-chloro-2-methoxy-4-pyridinyl)thio]-benzenebutanol (E)-2-butenedioate]
melting point: 191 to 193 °C

CCOc1cc(S[C@H](C[C@H](N)CO)c2ccccc2)c(C#N)cn1 [Example 29, 4-[[(1R,3S)-3-Amino-4-hydroxy-1-phenylbutyl]thio]-6-ethoxy-3-pyridinecarbonitrile. (E)-butenedioate]
melting point: 169.5 to 171.5 °C

N#Cc1ncc(C(F)(F)F)cc1S[C@H](C[C@H](N)CO)c1ccccc1.O=C(O)C(=O)O [Example 30, 3-[[(1R,3S)-3-Amino-4-hydroxy-1-phenylbutyl]thio]-5-(trifluoromethyl)-2-pyridinecarbonitrile ethanedioate]
melting point: 147 to 149 °C

COc1cc(S[C@H](C[C@H](N)CO)c2ccccc2F)c(C#N)cn1.O=C(O)C(=O)O [Example 35, 4-[[(1R,3S)-3-Amino-1-(2-fluorophenyl)-4-hydroxybutyl]thio]-6-methoxy-3-pyridinecarbonitrile ethanedioate]
melting point: 179 to 185 °C

N#Cc1ccc(C(F)(F)F)nc1O[C@H](C[C@H](N)CO)c1ccc(F)cc1.O=C(O)C(=O)O [Example 36, 2-[[(1R,3S)-3-Amino-1-(4-fluorophenyl)-4-hydroxybutyl]oxy]-6-trifluoromethyl-3-pyridinecarbonitrile ethanedioate]
melting point: 109 to 114 °C

N#Cc1ccc(S[C@H](C[C@H](N)CO)c2ccccc2)c(Cl)c1.O=C(O)C(=O)O [Example 43, 4-[[(1R,3S)-3-Amino-4-hydroxy-1-phenylbutyl]thio]-3-chlorobenzonitrile ethanedioate]
melting point: 142 to 144 °C

CCN[C@H](CO)C[C@@H](Oc1cc(Cl)c(F)cc1C#N)c1nccs1.O=C(O)C(=O)O [Example 44, 4-Chloro-2-[[(1R,3S)-3-(ethylamino)-4-hydroxy-1-(2-thiazolyl)butyl]oxy]-5-fluoro-benzonitrile ethanedioate salt]
melting point: 55 to 80 °C

N#Cc1cc(F)ccc1O[C@H](C[C@H](N)CO)c1cncs1.O=C(O)/C=C/C(=O)O [Example 45, 2-[[(1R,3S)-3-Amino-4-hydroxy-1-(5-thiazolyl)butyl]oxy]-5-fluoro-benzonitrile (2E)-2-butenedioate]
melting point: 163 to 165 °C

CC(C)(O)[C@@H](N)C[C@@H](Oc1cc(Cl)c(F)cc1C#N)c1ccccc1.O=C(O)C(=O)O [Example 47, 2-[[(1R,3S)-3-Amino-4-hydroxy-4-methyl-1-phenylpentyl]oxy]-4-chloro-5-fluoro benzonitrile ethanedioate]
melting point: 80 °C

CCC[C@@H](C[C@H](N)CO)Oc1cc(Cl)c(F)cc1C#N.O=C(O)C(=O)O [Example 48, 2-[[(1S,3S)-3-Amino-4-hydroxy-1-propylbutyl]oxy]-4-chloro-5-fluorobenzonitrile ethanedioate]
melting point: 171 to 172 °C

Cc1ccc(C#N)c(SC(C[C@H](N)CO)c2ccno2)n1.O=C(O)/C=C/C(=O)O (stereo partly drawn) [Example 51, 2-[[(3S)-3-Amino-4-hydroxy-1-(5-isoxazolyl)butyl]thio]-6-methyl-3-pyridinecarbonitrile (E)-butenedioate]
melting point: 150 to 152 °C

N#Cc1ccc(C(F)(F)F)nc1OC(C[C@H](N)CO)c1ccno1.O=C(O)/C=C/C(=O)O (stereo partly drawn) [Example 52, 2-[[(3S)-3-Amino-4-hydroxy-1-(5-isoxazolyl)butyl]oxy]-6-(trifluoromethyl)-3-pyridinecarbonitrile, (E)-butenedioate]
melting point: 150 to 152 °C

N#Cc1cc(F)c(Cl)cc1O[C@H](C[C@H](N)CO)c1ccsc1.O=C(O)C(=O)O [Example 54, 2-[[3-(3S)-Amino-4-hydroxy-1(R)-(3-thienyl)butyl]oxy]-4-chloro-5-fluorobenzonitrile ethanedioate]
melting point: 111 to 115 °C

Cl.Cl.N#Cc1ccc(C(F)(F)F)cc1S[C@H](C[C@H](N)CO)c1cccnc1 [Example 55, 2-[[(1R,3S)-3-Amino-4-hydroxy-1-(3-pyridinyl)butyl]thio]-4-(trifluoromethyl)benzonitrile dihydrochloride]
melting point: 238 to 240 °C

Cl.N#Cc1ccc(Cl)cc1S[C@H](C[C@H](N)CO)c1cncnc1 [Example 56, 2-[[(1R,3S)-3-Amino-4-hydroxy-1-(5-pyrimidyl)butyl]thio]-4-chlorobenzonitrile hydrochloride]
melting point: 120 to 130 °C
